The subject of this test is human NK cells from PBMC. As to the kind of experiment: Fold expansion and overall yield of transduced NK cells in culture. Format: cell-based. Particulars: BX795 (1.5 μM) during transduction combined with pre-stimulation with SMI-LCL feeder cells (FIG. 28A, 28B).

For `O=C(NCCCNc1nc(Nc2cccc(NC(=O)N3CCCC3)c2)ncc1I)c1cccs1` [BX795], the “subsequent proliferation of lentiviral transduced ex-vivo expanded human NK cells” value is “increased subsequent proliferation”.
